Data published in ChEMBL document CHEMBL1149371, “A strategy for the design of selective RNA binding agents. Preparation and RRE RNA binding affinities of a neomycin-peptide nucleic acid heteroconjugate library” (Bioorg Med Chem Lett, 2006).

Key:
[1] = biological target: Rev responsive element (RRE) RNA; assay: Binding affinity to Rev response element RNA; assay type: nucleic-acid assay
[2] = biological target: Rev responsive element (RRE) RNA; assay: Inhibition of Rev binding to Rev response element RNA in presence of competitor RNA; assay type: nucleic-acid assay
[3] = biological target: Rev responsive element (RRE) RNA; assay: Inhibition of Rev binding to Rev response element RNA in absence of competitor RNA; assay type: nucleic-acid assay
[4] = tested on: Rev responsive element (RRE) RNA; assay: Discrimination factor, Kd for tRNA/Kd for Rev response element RNA; assay type: nucleic-acid assay
[5] = tested on: Rev responsive element (RRE) RNA; assay: Ratio of inhibition of Rev binding to Rev response element RNA in presence to absence of competitor RNA; assay type: nucleic-acid assay
tRNA = assay: Binding affinity to tRNA

Row | SMILES | Kd [1] [µM] | Ratio [4] | Kd (tRNA) [µM] | also measured
1 | NC[C@@H]1O[C@H](O[C@H]2[C@@H](O)[C@H](O[C@@H]3[C@@H](O)[C@H](N)C[C@H](N)[C@H]3O[C@H]3O[C@H](CN)[C@@H](O)[C@H](O)[C@H]3N)O[C@@H]2CSCCCCCCSCC(=O)NCCN(CC(=O)NCCN(CC(N)=O)C(=O)Cn2ccc(N)nc2=O)C(=O)Cn2cnc3c(O)nc(N)nc32)[C@H](N)[C@@H](O)[C@@H]1O | 0.24 |  |  | 
2 | NC[C@@H]1O[C@H](O[C@H]2[C@@H](O)[C@H](O[C@@H]3[C@@H](O)[C@H](N)C[C@H](N)[C@H]3O[C@H]3O[C@H](CN)[C@@H](O)[C@H](O)[C@H]3N)O[C@@H]2CSCCCCCCSCC(=O)NCCN(CC(=O)NCCN(CC(N)=O)C(=O)Cn2ccc(N)nc2=O)C(=O)Cn2ccc(N)nc2=O)[C@H](N)[C@@H](O)[C@@H]1O | 0.43 |  |  | 
3 | NC[C@@H]1O[C@H](O[C@H]2[C@@H](O)[C@H](O[C@@H]3[C@@H](O)[C@H](N)C[C@H](N)[C@H]3O[C@H]3O[C@H](CN)[C@@H](O)[C@H](O)[C@H]3N)O[C@@H]2CO)[C@H](N)[C@@H](O)[C@@H]1O [FRAMYCETIN] | 0.18 |  |  | 
4 | NC[C@@H]1O[C@H](O[C@H]2[C@@H](O)[C@H](O[C@@H]3[C@@H](O)[C@H](N)C[C@H](N)[C@H]3O[C@H]3O[C@H](CN)[C@@H](O)[C@H](O)[C@H]3N)O[C@@H]2CSCCCCCCSCC(=O)NCCN(CC(=O)NCCN(CC(N)=O)C(=O)Cn2cnc3c(N)ncnc32)C(=O)Cn2ccc(N)nc2=O)[C@H](N)[C@@H](O)[C@@H]1O | 0.13 |  |  | 
5 | Cc1cn(CC(=O)N(CCNC(=O)CSCCCCCCSC[C@H]2O[C@@H](O[C@@H]3[C@@H](O)[C@H](N)C[C@H](N)[C@H]3O[C@H]3O[C@H](CN)[C@@H](O)[C@H](O)[C@H]3N)[C@H](O)[C@@H]2O[C@H]2O[C@@H](CN)[C@@H](O)[C@H](O)[C@H]2N)CC(=O)NCCN(CC(N)=O)C(=O)Cn2ccc(N)nc2=O)c(=O)[nH]c1=O | 0.36 |  |  | 
6 | NC[C@@H]1O[C@H](O[C@H]2[C@@H](O)[C@H](O[C@@H]3[C@@H](O)[C@H](N)C[C@H](N)[C@H]3O[C@H]3O[C@H](CN)[C@@H](O)[C@H](O)[C@H]3N)O[C@@H]2CSCCCCCCSCC(=O)NCCN(CC(=O)NCCN(CC(N)=O)C(=O)Cn2cnc3c(N)ncnc32)C(=O)Cn2cnc3c(N)ncnc32)[C@H](N)[C@@H](O)[C@@H]1O | 0.058 | 7.1 | 0.41 | IC50 [2]: 68 µM; IC50 [3]: 55 µM; Ratio [5]: 1.2
7 | NC[C@@H]1O[C@H](O[C@H]2[C@@H](O)[C@H](O[C@@H]3[C@@H](O)[C@H](N)C[C@H](N)[C@H]3O[C@H]3O[C@H](CN)[C@@H](O)[C@H](O)[C@H]3N)O[C@@H]2CSCCNc2c3ccccc3nc3ccccc23)[C@H](N)[C@@H](O)[C@@H]1O |  |  |  | IC50 [2]: 9.8 µM; IC50 [3]: 0.5 µM
8 | Cc1cn(CC(=O)N(CCNC(=O)CSCCCCCCSC[C@H]2O[C@@H](O[C@@H]3[C@@H](O)[C@H](N)C[C@H](N)[C@H]3O[C@H]3O[C@H](CN)[C@@H](O)[C@H](O)[C@H]3N)[C@H](O)[C@@H]2O[C@H]2O[C@@H](CN)[C@@H](O)[C@H](O)[C@H]2N)CC(=O)NCCN(CC(N)=O)C(=O)Cn2cnc3c(N)ncnc32)c(=O)[nH]c1=O | 0.071 | 3.2 | 0.23 | 
9 | Cc1cn(CC(=O)N(CCNC(=O)CN(CCNC(=O)CSCCCCCCSC[C@H]2O[C@@H](O[C@@H]3[C@@H](O)[C@H](N)C[C@H](N)[C@H]3O[C@H]3O[C@H](CN)[C@@H](O)[C@H](O)[C@H]3N)[C@H](O)[C@@H]2O[C@H]2O[C@@H](CN)[C@@H](O)[C@H](O)[C@H]2N)C(=O)Cn2cc(C)c(=O)[nH]c2=O)CC(N)=O)c(=O)[nH]c1=O | 0.13 |  |  | 

Now from value to compound, other results behind:

Row | Kd [1] [µM] | Ratio [4] | Kd (tRNA) [µM] | SMILES | also measured
10 | 0.25 |  |  | Cc1cn(CC(=O)N(CCNC(=O)CN(CCNC(=O)CSCCCCCCSC[C@H]2O[C@@H](O[C@@H]3[C@@H](O)[C@H](N)C[C@H](N)[C@H]3O[C@H]3O[C@H](CN)[C@@H](O)[C@H](O)[C@H]3N)[C@H](O)[C@@H]2O[C@H]2O[C@@H](CN)[C@@H](O)[C@H](O)[C@H]2N)C(=O)Cn2cnc3c(N)ncnc32)CC(N)=O)c(=O)[nH]c1=O | 
11 | 0.03 | 7 | 0.21 | NC[C@@H]1O[C@H](O[C@H]2[C@@H](O)[C@H](O[C@@H]3[C@@H](O)[C@H](N)C[C@H](N)[C@H]3O[C@H]3O[C@H](CN)[C@@H](O)[C@H](O)[C@H]3N)O[C@@H]2CSCCCCCCSCC(=O)NCCN(CC(=O)NCCN(CC(N)=O)C(=O)Cn2cnc3c(O)nc(N)nc32)C(=O)Cn2cnc3c(O)nc(N)nc32)[C@H](N)[C@@H](O)[C@@H]1O | IC50 [2]: 45 µM; IC50 [3]: 32 µM; Ratio [5]: 1.4
12 | 0.2 |  |  | NC[C@@H]1O[C@H](O[C@H]2[C@@H](O)[C@H](O[C@@H]3[C@@H](O)[C@H](N)C[C@H](N)[C@H]3O[C@H]3O[C@H](CN)[C@@H](O)[C@H](O)[C@H]3N)O[C@@H]2CSCCCCCCSCC(=O)NCCN(CC(=O)NCCN(CC(N)=O)C(=O)Cn2cnc3c(N)ncnc32)C(=O)Cn2cnc3c(O)nc(N)nc32)[C@H](N)[C@@H](O)[C@@H]1O | 
13 | 0.13 |  |  | CC(=O)N(CCNC(=O)CSCCCCCCSC[C@H]1O[C@@H](O[C@@H]2[C@@H](O)[C@H](N)C[C@H](N)[C@H]2O[C@H]2O[C@H](CN)[C@@H](O)[C@H](O)[C@H]2N)[C@H](O)[C@@H]1O[C@H]1O[C@@H](CN)[C@@H](O)[C@H](O)[C@H]1N)CC(=O)NCCN(CC(N)=O)C(=O)Cn1cnc2c(O)nc(N)nc21 | 
14 | 0.093 | 2.4 | 0.22 | Cc1cn(CC(=O)N(CCNC(=O)CN(CCNC(=O)CSCCCCCCSC[C@H]2O[C@@H](O[C@@H]3[C@@H](O)[C@H](N)C[C@H](N)[C@H]3O[C@H]3O[C@H](CN)[C@@H](O)[C@H](O)[C@H]3N)[C@H](O)[C@@H]2O[C@H]2O[C@@H](CN)[C@@H](O)[C@H](O)[C@H]2N)C(=O)Cn2cnc3c(O)nc(N)nc32)CC(N)=O)c(=O)[nH]c1=O | 
15 | 0.11 |  |  | Cc1cn(CC(=O)N(CCNC(=O)CN(CCNC(=O)CSCCCCCCSC[C@H]2O[C@@H](O[C@@H]3[C@@H](O)[C@H](N)C[C@H](N)[C@H]3O[C@H]3O[C@H](CN)[C@@H](O)[C@H](O)[C@H]3N)[C@H](O)[C@@H]2O[C@H]2O[C@@H](CN)[C@@H](O)[C@H](O)[C@H]2N)C(=O)Cn2ccc(N)nc2=O)CC(N)=O)c(=O)[nH]c1=O | 
16 | 0.32 |  |  | CC(=O)N(CCNC(=O)CSCCCCCCSC[C@H]1O[C@@H](O[C@@H]2[C@@H](O)[C@H](N)C[C@H](N)[C@H]2O[C@H]2O[C@H](CN)[C@@H](O)[C@H](O)[C@H]2N)[C@H](O)[C@@H]1O[C@H]1O[C@@H](CN)[C@@H](O)[C@H](O)[C@H]1N)CC(=O)NCCN(CC(N)=O)C(=O)Cn1ccc(N)nc1=O | 
17 | 0.27 |  |  | CC(=O)N(CCNC(=O)CSCCCCCCSC[C@H]1O[C@@H](O[C@@H]2[C@@H](O)[C@H](N)C[C@H](N)[C@H]2O[C@H]2O[C@H](CN)[C@@H](O)[C@H](O)[C@H]2N)[C@H](O)[C@@H]1O[C@H]1O[C@@H](CN)[C@@H](O)[C@H](O)[C@H]1N)CC(=O)NCCN(CC(N)=O)C(=O)Cn1cc(C)c(=O)[nH]c1=O | 
18 | 0.17 |  |  | NC[C@@H]1O[C@H](O[C@H]2[C@@H](O)[C@H](O[C@@H]3[C@@H](O)[C@H](N)C[C@H](N)[C@H]3O[C@H]3O[C@H](CN)[C@@H](O)[C@H](O)[C@H]3N)O[C@@H]2CSCCCCCCSCC(=O)NCCN(CC(=O)NCCN(CC(N)=O)C(=O)Cn2cnc3c(O)nc(N)nc32)C(=O)Cn2ccc(N)nc2=O)[C@H](N)[C@@H](O)[C@@H]1O | 
19 | 0.038 | 4.5 | 0.17 | NC[C@@H]1O[C@H](O[C@H]2[C@@H](O)[C@H](O[C@@H]3[C@@H](O)[C@H](N)C[C@H](N)[C@H]3O[C@H]3O[C@H](CN)[C@@H](O)[C@H](O)[C@H]3N)O[C@@H]2CSCCCCCCSCC(=O)NCCN(CC(=O)NCCN(CC(N)=O)C(=O)Cn2cnc3c(O)nc(N)nc32)C(=O)Cn2cnc3c(N)ncnc32)[C@H](N)[C@@H](O)[C@@H]1O | 
20 | 0.051 | 1.5 | 0.076 | NC[C@@H]1O[C@H](O[C@H]2[C@@H](O)[C@H](O[C@@H]3[C@@H](O)[C@H](N)C[C@H](N)[C@H]3O[C@H]3O[C@H](CN)[C@@H](O)[C@H](O)[C@H]3N)O[C@@H]2CSCCCCCCSCC(=O)NCCN(CC(=O)NCCN(CC(N)=O)C(=O)Cn2ccc(N)nc2=O)C(=O)Cn2cnc3c(N)ncnc32)[C@H](N)[C@@H](O)[C@@H]1O | 
